From patent publication US4254155A, “Preparing neohesperidin dihydrochalcone sweetener composition” (Chimicasa GmbH, priority 1979, dated 1981)

Test: discoloration / colour of aqueous NHDC solution
Type: physicochemical
Settings: over a period of time
From the text: The preferred acidulants are weak organic C1 -C6 organic mono- or di-carboxylic acids.
The acidulant-like malic or citric acid is incorporated to lower the pH to less than 6.5, in order to remove the yellow color formed in aqueous solutions of NHDC-based compositions.

SMILES: COc1ccc(CCC(=O)c2c(O)cc(O[C@@H]3O[C@H](CO)[C@@H](O)[C@H](O)[C@H]3O[C@@H]3O[C@@H](C)[C@H](O)[C@@H](O)[C@H]3O)cc2O)cc1O [NHDC, Neohesperidin dihydrochalcone]
- discoloration of aqueous NHDC solution: yellow discoloration
